# Experimental data as given in ChEMBL document CHEMBL4811244, “Design and synthesis of 1H-pyrazolo[3,4-b]pyridines targeting mitogen-activated protein kinase kinase 4 (MKK4) - A promising target for liver regeneration” (Eur J Med Chem, 2021).
# Assays:
# [1] = target: Mitogen-activated protein kinase kinase kinase 20 (Homo sapiens, UniProt Q9NYL2); assay: Binding affinity to wild-type human partial length ZAK (M1 to L331 residues) expressed in bacterial expression system assessed as residual binding level at 100 nM by Kinomescan method relative to control
# Chain of Mitogen-activated protein kinase kinase kinase 20 (Q9NYL2 2-800 limits assumed): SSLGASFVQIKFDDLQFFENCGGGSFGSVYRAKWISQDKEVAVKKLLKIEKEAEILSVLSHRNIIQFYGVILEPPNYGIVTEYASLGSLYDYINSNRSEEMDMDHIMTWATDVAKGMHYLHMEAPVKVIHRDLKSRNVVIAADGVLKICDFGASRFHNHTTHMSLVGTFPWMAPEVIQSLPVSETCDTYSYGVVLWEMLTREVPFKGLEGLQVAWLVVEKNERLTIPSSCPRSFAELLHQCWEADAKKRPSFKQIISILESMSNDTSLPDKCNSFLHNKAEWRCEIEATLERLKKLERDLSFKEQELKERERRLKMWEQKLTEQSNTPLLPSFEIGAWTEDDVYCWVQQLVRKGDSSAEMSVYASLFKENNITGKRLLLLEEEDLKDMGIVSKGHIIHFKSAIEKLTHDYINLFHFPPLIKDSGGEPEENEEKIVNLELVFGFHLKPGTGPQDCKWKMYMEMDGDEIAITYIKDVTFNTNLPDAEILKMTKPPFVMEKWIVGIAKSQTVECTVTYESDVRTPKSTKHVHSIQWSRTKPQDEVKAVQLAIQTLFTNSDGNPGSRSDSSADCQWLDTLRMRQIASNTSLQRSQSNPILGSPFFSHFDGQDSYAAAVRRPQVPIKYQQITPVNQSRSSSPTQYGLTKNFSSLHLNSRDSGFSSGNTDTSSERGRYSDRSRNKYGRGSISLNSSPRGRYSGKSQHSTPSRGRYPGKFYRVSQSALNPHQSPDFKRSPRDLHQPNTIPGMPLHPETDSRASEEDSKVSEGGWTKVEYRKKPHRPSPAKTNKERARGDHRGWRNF
# [2] = target: T1, Dual specificity mitogen-activated protein kinase kinase 7 (Homo sapiens) (UniProt O14733); assay: Binding affinity to wild-type human full length MKK7 (M1 to R419 residues) expressed in mammalian expression system assessed as residual binding level at 100 nM by Kinomescan method relative to control
# T1 sequence (whole entry): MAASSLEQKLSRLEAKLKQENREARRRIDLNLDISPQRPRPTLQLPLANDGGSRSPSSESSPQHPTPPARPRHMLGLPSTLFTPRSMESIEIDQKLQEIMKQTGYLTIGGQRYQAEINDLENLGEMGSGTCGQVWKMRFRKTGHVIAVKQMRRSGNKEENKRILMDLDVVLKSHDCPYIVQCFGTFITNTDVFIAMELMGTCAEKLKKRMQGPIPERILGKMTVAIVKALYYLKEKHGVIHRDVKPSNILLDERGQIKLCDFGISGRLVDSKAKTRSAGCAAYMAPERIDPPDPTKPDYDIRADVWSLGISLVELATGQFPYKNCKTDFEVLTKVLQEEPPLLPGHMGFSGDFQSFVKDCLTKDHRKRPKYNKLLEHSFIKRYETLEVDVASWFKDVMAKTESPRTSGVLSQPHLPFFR
# [3] = target: Mitogen-activated protein kinase kinase kinase kinase 5 (Homo sapiens, UniProt Q9Y4K4); assay: Binding affinity to wild-type human partial length MAP4K5 (M1 to P297 residues) expressed in bacterial expression system assessed as residual binding level at 100 nM by Kinomescan method relative to control
# Chain of Mitogen-activated protein kinase kinase kinase kinase 5 (Q9Y4K4 whole entry, looked up, the tested form may be a part): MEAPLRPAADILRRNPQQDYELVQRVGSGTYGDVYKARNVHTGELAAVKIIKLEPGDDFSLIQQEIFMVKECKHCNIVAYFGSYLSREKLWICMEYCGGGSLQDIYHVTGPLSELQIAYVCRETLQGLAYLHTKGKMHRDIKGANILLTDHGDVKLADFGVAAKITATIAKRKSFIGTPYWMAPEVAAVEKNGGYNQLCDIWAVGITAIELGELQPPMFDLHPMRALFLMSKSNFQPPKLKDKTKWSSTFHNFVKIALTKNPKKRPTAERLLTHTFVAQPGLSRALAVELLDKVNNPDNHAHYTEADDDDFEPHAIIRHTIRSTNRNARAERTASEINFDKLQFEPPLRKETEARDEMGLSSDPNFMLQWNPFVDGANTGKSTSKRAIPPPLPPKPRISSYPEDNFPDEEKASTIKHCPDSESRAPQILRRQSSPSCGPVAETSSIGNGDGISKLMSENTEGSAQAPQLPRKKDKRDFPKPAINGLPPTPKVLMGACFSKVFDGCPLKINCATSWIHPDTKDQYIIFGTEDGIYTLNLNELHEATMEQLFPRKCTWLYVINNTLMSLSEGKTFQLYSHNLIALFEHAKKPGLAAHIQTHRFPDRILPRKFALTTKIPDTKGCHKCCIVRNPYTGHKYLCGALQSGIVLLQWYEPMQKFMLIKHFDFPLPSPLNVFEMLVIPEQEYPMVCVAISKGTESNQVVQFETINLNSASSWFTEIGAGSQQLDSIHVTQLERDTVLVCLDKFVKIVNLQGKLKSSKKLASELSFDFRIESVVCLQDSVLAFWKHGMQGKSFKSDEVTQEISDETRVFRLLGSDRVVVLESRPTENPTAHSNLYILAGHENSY
# [4] = target: T2, Dual specificity mitogen-activated protein kinase kinase 4 (Homo sapiens, UniProt P45985); assay: Inhibition of MKK4 (unknown origin) by PanQinase assay
# T2 sequence (P45985 whole entry): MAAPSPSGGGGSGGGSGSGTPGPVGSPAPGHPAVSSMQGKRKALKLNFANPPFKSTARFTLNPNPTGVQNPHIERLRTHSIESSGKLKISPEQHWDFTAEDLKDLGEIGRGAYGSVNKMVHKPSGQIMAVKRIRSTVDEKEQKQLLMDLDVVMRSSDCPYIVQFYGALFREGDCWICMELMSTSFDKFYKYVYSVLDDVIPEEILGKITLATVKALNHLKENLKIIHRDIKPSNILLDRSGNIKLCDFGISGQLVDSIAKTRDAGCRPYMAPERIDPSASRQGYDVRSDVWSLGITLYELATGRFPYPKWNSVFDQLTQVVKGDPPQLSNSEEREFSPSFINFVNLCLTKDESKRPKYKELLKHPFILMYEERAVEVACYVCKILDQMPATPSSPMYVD
SMILES,Activity [1],Activity [2],Activity [3],IC50 [4]
CCCS(=O)(=O)Nc1ccc(F)c(C(=O)c2n[nH]c3ncc(-c4ccc(S(N)(=O)=O)cc4Cl)cc23)c1F,100%,100%,,
CCCS(=O)(=O)Nc1ccc(F)c(C(=O)c2n[nH]c3ncc(-c4ccc(C(C)C)cc4)cc23)c1F,92%,98%,89%,
CCCS(=O)(=O)Nc1ccc(F)c(C(=O)c2n[nH]c3ncc(-c4ccc(F)cc4)cc23)c1F,4.8%,100%,59%,
CCCS(=O)(=O)Nc1ccc(F)c(C(=O)c2n[nH]c3ncc(-c4ccccc4)cc23)c1F,1.9%,100%,24%,
CCCS(=O)(=O)Nc1ccc(F)c(C(=O)c2n[nH]c3ncc(-c4ccc(N)cc4)cc23)c1F,2.7%,93%,1.3%,
CCCS(=O)(=O)Nc1ccc(F)c(C(=O)c2n[nH]c3ncc(-c4ccccc4O)cc23)c1F,9.7%,100%,39%,
CS(=O)(=O)Nc1ccc(F)c(C(=O)c2n[nH]c3ncc(-c4ccc(S(N)(=O)=O)cc4)cc23)c1F,100%,99%,99%,
CCCS(=O)(=O)Nc1ccc(F)c(C(=O)c2n[nH]c3ncc(-c4ccc(OC)cc4Cl)cc23)c1F,74%,100%,53%,
CCCS(=O)(=O)Nc1ccc(F)c(C(=O)c2n[nH]c3ncc(-c4ccc(S(=O)(=O)NCC)cc4)cc23)c1F,32%,100%,26%,
CCCS(=O)(=O)Nc1ccc(F)c(C(=O)c2n[nH]c3ncc(-c4ccc(Cl)c(Cl)c4)cc23)c1F,85%,100%,100%,
CCCS(=O)(=O)Nc1ccc(F)c(C(=O)c2n[nH]c3ncc(-c4cc(Cl)cc(Cl)c4)cc23)c1F,66%,100%,99%,
CCCS(=O)(=O)Nc1ccc(F)c(C(=O)c2n[nH]c3ncc(-c4ccc(S(=O)(=O)NC)cc4)cc23)c1F,33%,100%,17%,
CCCS(=O)(=O)Nc1ccc(F)c(C(=O)c2n[nH]c3ncc(-c4ccc(NS(C)(=O)=O)cc4)cc23)c1F,4.3%,100%,1.1%,
CCCS(=O)(=O)Nc1ccc(F)c(C(=O)c2n[nH]c3ncc(-c4ccc(S(N)(=O)=O)cc4)cc23)c1F,91%,98%,100%,0.089 µM
CCCS(=O)(=O)Nc1ccc(F)c(C(=O)c2n[nH]c3ncc(-c4ccc(S(=O)(=O)NC(C)=O)cc4)cc23)c1F,38%,71%,67%,0.029 µM
CCCS(=O)(=O)Nc1ccc(F)c(C(=O)c2n[nH]c3ncc(-c4ccc(S(C)(=O)=O)cc4)cc23)c1F,21%,100%,14%,
CCCS(=O)(=O)Nc1ccc(F)c(C(=O)c2n[nH]c3ncc(-c4ccccc4OC)cc23)c1F,36%,100%,34%,
CCCS(=O)(=O)Nc1ccc(F)c(C(=O)c2n[nH]c3ncc(-c4cccc(C)c4)cc23)c1F,5.5%,100%,18%,
CCCS(=O)(=O)Nc1ccc(F)c(C(=O)c2n[nH]c3ncc(-c4ccc(-c5nnn[nH]5)cc4)cc23)c1F,20%,64%,81%,
CCCS(=O)(=O)Nc1ccc(F)c(C(=O)c2n[nH]c3ncc(-c4ccccc4Cl)cc23)c1F,64%,100%,96%,
CCCS(=O)(=O)Nc1ccc(F)c(C(=O)c2n[nH]c3ncc(-c4cccc(N(C)C)c4)cc23)c1F,9.7%,100%,11%,
CCCS(=O)(=O)Nc1ccc(F)c(C(=O)c2n[nH]c3ncc(-c4cccc(Cl)c4)cc23)c1F,16%,100%,69%,
CCCS(=O)(=O)Nc1ccc(F)c(C(=O)c2n[nH]c3ncc(-c4ccc(C(C)(C)C)cc4)cc23)c1F,77%,100%,97%,
CCCS(=O)(=O)Nc1ccc(F)c(C(=O)c2n[nH]c3ncc(-c4cccc(F)c4)cc23)c1F,12%,97%,65%,
CCCS(=O)(=O)Nc1ccc(F)c(C(=O)c2n[nH]c3ncc(-c4ccc(S(N)(=O)=O)cc4F)cc23)c1F,100%,100%,77%,
CCCS(=O)(=O)Nc1ccc(F)c(C(=O)c2n[nH]c3ncc(-c4ccccc4F)cc23)c1F,32%,83%,59%,
CCCCS(=O)(=O)Nc1ccc(F)c(C(=O)c2n[nH]c3ncc(-c4ccc(S(N)(=O)=O)cc4)cc23)c1F,100%,100%,100%,
CCCS(=O)(=O)Nc1ccc(F)c(C(=O)c2n[nH]c3ncc(-c4ccc(S(N)(=O)=O)cc4C)cc23)c1F,94%,100%,,

# Continued, values first:
Activity [1],Activity [2],Activity [3],IC50 [4],SMILES
52%,95%,93%,,CCCS(=O)(=O)Nc1ccc(F)c(C(=O)c2n[nH]c3ncc(-c4cccc([N+](=O)[O-])c4)cc23)c1F
24%,100%,20%,,CCCS(=O)(=O)Nc1ccc(F)c(C(=O)c2n[nH]c3ncc(-c4ccc(C)c(C)c4)cc23)c1F
75%,100%,76%,,CCCS(=O)(=O)Nc1ccc(F)c(C(=O)c2n[nH]c3ncc(-c4ccc(C(F)(F)F)cc4)cc23)c1F
7.5%,27%,75%,,CCCS(=O)(=O)Nc1ccc(F)c(C(=O)c2n[nH]c3ncc(-c4ccc(C(=O)O)cc4)cc23)c1F
2.3%,86%,3.8%,,CCCS(=O)(=O)Nc1ccc(F)c(C(=O)c2n[nH]c3ncc(-c4cccc(N)c4)cc23)c1F
5.9%,100%,25%,,CCCS(=O)(=O)Nc1ccc(F)c(C(=O)c2n[nH]c3ncc(-c4ccc(C)cc4)cc23)c1F
99%,96%,100%,,CCCS(=O)(=O)Nc1ccc(F)c(C(=O)c2n[nH]c3ncc(-c4ccc(Cl)cc4Cl)cc23)c1F
44%,100%,98%,,CCCS(=O)(=O)Nc1ccc(F)c(C(=O)c2n[nH]c3ncc(-c4cccc(C(F)(F)F)c4)cc23)c1F
1.9%,100%,28%,,CCCS(=O)(=O)Nc1ccc(F)c(C(=O)c2n[nH]c3ncc(-c4ccc(OC)cc4)cc23)c1F
23%,100%,24%,,CCCS(=O)(=O)Nc1ccc(F)c(C(=O)c2n[nH]c3ncc(-c4cccc(OC)c4)cc23)c1F
0.95%,100%,8%,,CCCS(=O)(=O)Nc1ccc(F)c(C(=O)c2n[nH]c3ncc(-c4cccc(O)c4)cc23)c1F
0%,87%,9.4%,,CCCS(=O)(=O)Nc1ccc(F)c(C(=O)c2n[nH]c3ncc(-c4ccc(O)cc4)cc23)c1F
20%,100%,16%,,CCCS(=O)(=O)Nc1ccc(F)c(C(=O)c2n[nH]c3ncc(-c4ccc(Cl)c(C(F)(F)F)c4)cc23)c1F
23%,100%,61%,,CCCS(=O)(=O)Nc1ccc(F)c(C(=O)c2n[nH]c3ncc(-c4ccc([N+](=O)[O-])cc4)cc23)c1F
65%,100%,55%,,CCCS(=O)(=O)Nc1ccc(F)c(C(=O)c2n[nH]c3ncc(-c4ccc(F)cc4C)cc23)c1F
41%,100%,67%,,CCCS(=O)(=O)Nc1ccc(F)c(C(=O)c2n[nH]c3ncc(-c4ccccc4C)cc23)c1F
2.2%,100%,31%,,CCCS(=O)(=O)Nc1ccc(F)c(C(=O)c2n[nH]c3ncc(-c4ccc(N(C)C)cc4)cc23)c1F
40%,95%,73%,,CCCS(=O)(=O)Nc1ccc(F)c(C(=O)c2n[nH]c3ncc(-c4ccccc4N)cc23)c1F
8.1%,99%,10%,,CCCS(=O)(=O)Nc1ccc(F)c(C(=O)c2n[nH]c3ncc(-c4ccc(C(N)=O)cc4)cc23)c1F
